Source: patent US9504690B2, “Tetracyclic xanthene derivatives and methods of use thereof for the treatment of viral diseases” (Merck Sharp & Dohme Corp., priority 2011, dated 2016)

Experiments:
[1] = test system: HCV replicon 1b Y93H; test: Cell-based HCV replicon assay, 1b Y93H; conditions: Hepatitis C virus, 72 h, read-out: Replicon EC50 1b Y93H
Protocol: (§1) To measure cell-based anti-HCV activity of selected compounds of the present invention, replicon cells were seeded at 5000 cells/well in 96-well collagen I-coated Nunc plates in the presence of the test compound. Various concentrations of test compound, typically in 10 serial 2-fold dilutions, were added to the assay mixture, with the starting concentration ranging from 250 μM to 1 μM. The final concentration of DMSO was 0.5%, fetal bovine serum was 5%, in the assay media. Cells were harvested on day 3 by the addition of 1× cell lysis buffer (Ambion cat #8721). The replicon RNA level was measured using real time PCR (Taqman assay). The amplicon was located in 5B. The PCR primers were: 5B.2F, ATGGACAGGCGCCCTGA (SEQ. ID. NO. 1); 5B.2R, […] (SEQ. ID. NO. 2); the probe sequence was FAM-labeled CACGCCATGCGCTGCGG (SEQ. ID. NO. 3). GAPDH RNA was used as endogenous control and was amplified in the same reaction as NS5B (multiplex PCR) using primers and VIC-labeled probe recommended by the manufacturer (PE Applied Biosystem). The real-time RT-PCR reactions were run on ABI PRISM 7900HT Sequence Detection System using the following program: 48° C. for 30 minutes, 95° C. for 10 minutes, 40 cycles of 95° C. for 15 sec, 60° C. for 1 minutes. The ΔCT values (CT5B-CTGAPDH) were plotted against the concentration of test compound and fitted to the sigmoid dose-response model using XLfit4 (MDL). […] Alternatively, to quantitate the absolute amount of replicon RNA, a standard curve was established by including serially diluted T7 transcripts of replicon RNA in the Taqman assay. All Taqman reagents were from PE Applied Biosystems. Such an assay procedure was described in detail in e.g. Malcolm et al., Antimicrobial Agents and Chemotherapy 50: 1013-1020 (2006).
(§2) HCV replicon assay data was calculated for selected compounds of the present invention using this method and is provided in the table below.

[2] = test system: HCV replicon 2a WT; test: Cell-based HCV replicon assay, 2a WT; conditions: Hepatitis C virus, 72 h; replicon cells, harvested day 3, replicon RNA by real time PCR (Taqman)
Protocol: as §1, §2

[3] = test system: HCV replicon 1b WT; test: Cell-based HCV replicon assay, 1b WT; conditions: Hepatitis C virus, 72 h; replicon cells, harvested day 3, replicon RNA by real time PCR (Taqman)
Protocol: as §1, §2

[4] = test system: HCV replicon 3a WT; test: Cell-based HCV replicon assay, 3a WT; conditions: Hepatitis C virus, 72 h; replicon cells, harvested day 3, replicon RNA by real time PCR (Taqman)
Protocol: as §1, §2

[5] = test system: HCV replicon 4a WT; test: Cell-based HCV replicon assay, 4a WT; conditions: Hepatitis C virus, 72 h; replicon cells, harvested day 3, replicon RNA by real time PCR (Taqman)
Protocol: as §1, §2

[6] = test system: HCV replicon 1a Y93H; test: Cell-based HCV replicon assay, 1a Y93H; conditions: Hepatitis C virus, 72 h, read-out: Replicon EC50 1a Y93H
Protocol: as §1, §2

[7] = test system: HCV replicon 1a WT; test: Cell-based HCV replicon assay, 1a WT; conditions: Hepatitis C virus, 72 h; replicon cells, harvested day 3, replicon RNA by real time PCR (Taqman)
Protocol: as §1, §2

[8] = test system: HCV replicon 2b WT; test: Cell-based HCV replicon assay, 2b WT; conditions: Hepatitis C virus, 72 h; replicon cells, harvested day 3, replicon RNA by real time PCR (Taqman)
Protocol: as §1, §2

Work on `COC(=O)N[C@H](C(=O)N1CCC[C@H]1c1ncc(-c2ccc3c(c2)Oc2ccc(-c4cnc([C@@H]5CCCN5C(=O)[C@@H](NC(=O)OC)C(C)C)[nH]4)c4ccn-3c24)[nH]1)C(C)C` [Compound 1, Methyl [(2S)-1-{(2S)-2-[5-(3-{2-[(2S)-1-{(2S)-2-[(methoxycarbonyl)amino]-3-methyl-butanoyl}pyrrolidin-2-yl]-1H-imidazol-5-yl}pyrrolo[3,2,1-kl]phenoxazin-8-yl)-1H-imidazol-2-yl]pyrrolidin-1-yl}-3-methyl-1-oxobutan-2-yl]carbamate] yielded an EC50 [1] of 560 pM, an EC50 [2] of 4 pM and an EC50 [3] of 9 pM. For the same molecule, the EC50 [4] was 323 pM, the EC50 [5] was 44 pM and the EC50 [6] was 41700 pM. For the same molecule, the EC50 [7] was 10.7 pM.
With `COC(=O)N[C@H](C(=O)N1CCC[C@H]1c1ncc(-c2cc3c4c(c2)Oc2ccc(-c5cnc([C@@H]6CCCN6C(=O)[C@@H](NC(=O)OC)C(C)C)[nH]5)cc2N4CC3)[nH]1)C(C)C` [Compound 6, Methyl [(2S)-1-{(2S)-2-[5-(4-{2-[(2S)-1-{(2S)-2-[(methoxycarbonyl)amino]-3-methylbutanoyl}pyrrolidin-2-yl]-1H-imidazol-5-yl}-1,2-dihydropyrrolo[3,2,1-kl]phenoxazin-9-yl)-1H-imidazol-2-yl]pyrrolidin-1-yl}-3-methyl-1-oxobutan-2-yl]carbamate] the EC50 [1] was 303 pM, the EC50 [2] was 11 pM and the EC50 [8] was 18900 pM. For the same molecule, the EC50 [3] was 5 pM, the EC50 [4] was 220 pM and the EC50 [5] was 220 pM. The EC50 [6] was 43500 pM and the EC50 [7] was 37 pM.
Work on `COC(=O)N[C@H](C(=O)N1CCC[C@H]1c1ncc(-c2cc3c4c(c2)Oc2ccc(-c5cnc([C@@H]6CCCN6C(=O)[C@@H](NC(=O)OC)C(C)C)[nH]5)cc2N4CCO3)[nH]1)C(C)C` [Compound 13, Methyl [(2S)-1-{(2S)-2-[5-(5-{2-[(2S)-1-{(2S)-2-[(methoxycarbonyl)amino]-3-methylbutanoyl}pyrrolidin-2-yl]-1H-imidazol-5-yl}-1,2-dihydro[1,4]oxazino[2,3,4-kl]phenoxazin-10-yl)-1H-imidazol-2-yl]pyrrolidin-1-yl}-3-methyl-1-oxobutan-2-yl]carbamate] yielded an EC50 [1] of 19000 pM, an EC50 [2] of 10 pM and an EC50 [8] of 19300 pM. The EC50 [3] was 5 pM, the EC50 [4] was 1630 pM and the EC50 [5] was 480 pM. It also gave an EC50 [6] of 143000 pM and an EC50 [7] of 2 pM.
`COC(=O)N[C@H](C(=O)N1CCC[C@H]1c1ncc(-c2ccc3c(c2)Oc2ccc(-c4cnc([C@@H]5CCCN5C(=O)[C@@H](NC(=O)OC)C(C)C)[nH]4)c4occ-3c24)[nH]1)C(C)C` [Compound 14, Methyl [(2S)-1-{(2S)-2-[5-(3-{2-[(2S)-1-{(2S)-2-[(methoxycarbonyl)amino]-3-methylbutanoyl}pyrrolidin-2-yl]-1H-imidazol-5-yl}furo[2,3,4-kl]xanthen-8-yl)-1H-imidazol-2-yl]pyrrolidin-1-yl}-3-methyl-1-oxobutan-2-yl]carbamate] showed an EC50 [1] of 278 pM, an EC50 [2] of 2 pM and an EC50 [8] of 34500 pM. It also gave an EC50 [3] of 2 pM, an EC50 [4] of 161 pM and an EC50 [5] of 56 pM. For the same molecule, the EC50 [6] was 31500 pM and the EC50 [7] was 11 pM.
`COC(=O)N[C@H](C(=O)N1CCC[C@H]1c1ncc(-c2ccc3c(c2)-n2ccc4cc(-c5cnc([C@@H]6CCCN6C(=O)[C@@H](NC(=O)OC)C(C)C)[nH]5)cc(c42)O3)[nH]1)C(C)C` [Compound 16] gave an EC50 [1] of 9100 pM, an EC50 [2] of 104 pM and an EC50 [8] of 9070 pM. The EC50 [3] was 9 pM, the EC50 [4] was 9610 pM and the EC50 [5] was 1310 pM. The EC50 [6] was 50900 pM and the EC50 [7] was 100 pM.
For `COC(=O)N[C@H](C(=O)N1CCC[C@H]1c1ncc(-c2ccc3c(c2)Oc2ccc(-c4cnc([C@@H]5CCCN5C(=O)[C@@H](NC(=O)OC)C(C)C)[nH]4)c4c2N3CC4)[nH]1)C(C)C` [Compound 17], the EC50 [1] was 19600 pM, the EC50 [2] was 7 pM and the EC50 [8] was 19600 pM. The EC50 [3] was 1 pM, the EC50 [4] was 67 pM and the EC50 [5] was 26 pM. The EC50 [6] was 19500 pM and the EC50 [7] was 6 pM.
